This note sets out measurements from patent US6653330B2, “Amide-type triazole compounds” (Sankyo Company, Limited, priority 2000, dated 2003).

Each structure is given as a SMILES string.

For orientation: melting point means the temperature of the solid-liquid transition. On to `C[C@@H](S[C@H]1CO[C@H](c2ccc(C(=O)Nc3ccc(OC(F)(F)F)cc3)cc2)OC1)[C@](O)(Cn1cncn1)c1ccc(F)cc1F` [Example 12, 4-[trans-5-[[(1R,2R)-2-(2,4-Difluorophenyl)-2-hydroxy-1-methyl-3-(1H-1,2,4-triazol-1-yl)propyl]thio]-1,3-dioxan-2-yl]-4′-(trifluoromethoxy)benzanilide], for which the melting point was found to be 180 °C.

`C[C@@H](S[C@H]1CO[C@H](c2ccc(C(=O)Nc3nc4ccccc4s3)cc2)OC1)[C@](O)(Cn1cncn1)c1ccc(F)cc1F` [Example 28, N-(Benzothiazol-2-yl)-4-[trans-5-[[(1R,2R)-2-(2,4-difluorophenyl)-2-hydroxy-1-methyl-3-(1H-1,2,4-triazol-1-yl)propyl]thio]-1,3-dioxan-2-yl]benzamide] displayed a melting point of 107 °C.

In turn, `C[C@@H](S[C@H]1CO[C@H](c2ccc(C(=O)Nc3ccc(Br)cc3)cc2)OC1)[C@](O)(Cn1cncn1)c1ccc(F)cc1F` [Example 15, 4′-Bromo-4-[trans-5-[[(1R,2R)-2-(2,4-difluorophenyl)-2-hydroxy-1-methyl-3-(1H-1,2,4-triazol-1-yl)propyl]thio]-1,3-dioxan-2-yl]benzanilide] returned a melting point of 221 °C.

Turning to `C[C@@H](S[C@H]1CO[C@H](c2ccc(C(=O)Nc3ccc(C#N)cc3F)cc2)OC1)[C@](O)(Cn1cncn1)c1ccc(F)cc1F` [Example 25, 4′-Cyano-2′-fluoro-4-[trans-5-[[(1R,2R)-2-(2,4-difluorophenyl)-2-hydroxy-1-methyl-3-(1H-1,2,4-triazol-1-yl)propyl]thio]-1,3-dioxan-2-yl]benzanilide], the melting point was 136 °C.

On to `C[C@@H](S[C@H]1CO[C@H](c2ccc(C(=O)Nc3ccc(C#N)c(C#N)c3)cc2)OC1)[C@](O)(Cn1cncn1)c1ccc(F)cc1F` [Example 21, 3′,4′-Dicyano-4-[trans-5-[[(1R,2R)-2-(2,4-difluorophenyl)-2-hydroxy-1-methyl-3-(1H-1,2,4-triazol-1-yl)propyl]thio]-1,3-dioxan-2-yl]benzanilide], for which the melting point is 182 °C.

As for `Cc1ccc(NC(=O)c2ccc([C@H]3OC[C@H](S[C@H](C)[C@](O)(Cn4cncn4)c4ccc(F)cc4F)CO3)cc2)cc1` [Example 14, 4-[trans-5-[[(1R,2R)-2-(2,4-Difluorophenyl)-2-hydroxy-1-methyl-3-(1H-1,2,4-triazol-1-yl)propyl]thio]-1,3-dioxan-2-yl]-4′-methylbenzanilide], the melting point came to 101 °C.

The compound `C[C@@H](S[C@H]1CO[C@H](c2ccc(C(=O)Nc3ccc(C#N)cc3)cc2F)OC1)[C@](O)(Cn1cncn1)c1ccc(F)cc1F` [Example 5, 4′-Cyano-4-[trans-5-[[(1R,2R)-2-(2,4-difluorophenyl)-2-hydroxy-1-methyl-3-(1H-1,2,4-triazol-1-yl)propyl]thio]-1,3-dioxan-2-yl]-3-fluorobenzanilide] showed a melting point of 110 °C.

Take `CC(=O)Oc1ccc(NC(=O)c2ccc([C@H]3OC[C@H](S[C@H](C)[C@](O)(Cn4cncn4)c4ccc(F)cc4F)CO3)cc2)cc1` [Example 24, 4′-Acetoxy-4-[trans-5-[[(1R,2R)-2-(2,4-difluorophenyl)-2-hydroxy-1-methyl-3-(1H-1,2,4-triazol-1-yl)propyl]thio]-1,3-dioxan-2-yl]benzanilide]: the melting point was found to be 127 °C.

In the case of `C[C@@H](S[C@H]1CO[C@H](c2cccc(C(=O)Nc3ccc(C#N)cc3)c2)OC1)[C@](O)(Cn1cncn1)c1ccc(F)cc1F` [Example 6, 4′-Cyano-3-[trans-5-[[(1R,2R)-2-(2,4-difluorophenyl)-2-hydroxy-1-methyl-3-(1H-1,2,4-triazol-1-yl)propyl]thio]-1,3-dioxan-2-yl]benzanilide], the melting point was 105 °C.

`C[C@@H](S[C@H]1CO[C@H](c2ccc(C(=O)Nc3c(F)c(F)c(C#N)c(F)c3F)cc2)OC1)[C@](O)(Cn1cncn1)c1ccc(F)cc1F` [Example 20, 4′-Cyano-4-[trans-5-[[(1R,2R)-2-(2,4-difluorophenyl)-2-hydroxy-1-methyl-3-(1H-1,2,4-triazol-1-yl)propyl]thio]-1,3-dioxan-2-yl]-2′,3′,5′,6′-tetrafluorobenzanilide] gave a melting point of 182 °C.

Consider `C[C@@H](S[C@H]1CO[C@H](c2ccc(C(=O)Nc3ccc(Cl)cc3)cc2)OC1)[C@](O)(Cn1cncn1)c1ccc(F)cc1F` [Example 8, 4′-Chloro-4-[trans-5-[[(1R,2R)-2-(2,4-difluorophenyl)-2-hydroxy-1-methyl-3-(1H-1,2,4-triazol-1-yl)propyl]thio]-1,3-dioxan-2-yl]benzanilide], for which the melting point worked out at 210 °C.

`C[C@@H](S[C@H]1CO[C@H](c2ccc(C(=O)Nc3ccc(F)cc3)cc2)OC1)[C@](O)(Cn1cncn1)c1ccc(F)cc1F` [Example 10, 4-[trans-5-[[(1R,2R)-2-(2,4-Difluorophenyl)-2-hydroxy-1-methyl-3-(1H-1,2,4-triazol-1-yl)propyl]thio]-1,3-dioxan-2-yl]-4′-fluorobenzanilide] came in with a melting point of 104 °C.

Turning to `C[C@@H](S[C@H]1CO[C@H](c2ccc(C(=O)Nc3ccc(C#N)cc3)cc2)OC1)[C@](O)(Cn1cncn1)c1ccc(F)cc1F` [Example 2, 4′-Cyano-4-[trans-5-[[(1R,2R)-2-(2,4-difluorophenyl)-2-hydroxy-1-methyl-3-(1H-1,2,4-triazol-1-yl)propyl]thio]-1,3-dioxan-2-yl]benzanilide], the melting point was found to be 176 °C.

Regarding `C[C@@H](S[C@H]1CO[C@H](c2ccc(C(=O)NCc3cccc4ccccc34)cc2)OC1)[C@](O)(Cn1cncn1)c1ccc(F)cc1F` [Example 29, 4-[trans-5-[[(1R,2R)-2-(2,4-Difluorophenyl)-2-hydroxy-1-methyl-3-(1H-1,2,4-triazol-1-yl)propyl]thio]-1,3-dioxan-2-yl]-N-[(1-naphthyl)methyl]benzamide], the melting point was found to be 97 °C.

In the case of `C[C@@H](C[C@H]1CO[C@H](c2ccc(C(=O)Nc3ccc(C#N)cc3)cc2)OC1)[C@](O)(Cn1cncn1)c1ccc(F)cc1F` [Example 4, 4′-Cyano-4-[trans-5-[(2S,3R)-3-(2,4-difluorophenyl)-3-hydroxy-2-methyl-4-(1H-1,2,4-triazol-1-yl)butyl]-1,3-dioxan-2-yl]benzanilide], the melting point came to 159 °C.

`C[C@@H](S[C@H]1CO[C@H](c2ccc(C(=O)Nc3ccc(CC#N)cc3)cc2)OC1)[C@](O)(Cn1cncn1)c1ccc(F)cc1F` [Example 7, 4′-(Cyanomethyl)-4-[trans-5-[[(1R,2R)-2-(2,4-difluorophenyl)-2-hydroxy-1-methyl-3-(1H-1,2,4-triazol-1-yl)propyl]thio]-1,3-dioxan-2-yl]benzanilide] returned a melting point of 188 °C.

In turn, `C[C@@H](S[C@H]1CO[C@H](c2ccc(C(=O)Nc3ccncc3)cc2)OC1)[C@](O)(Cn1cncn1)c1ccc(F)cc1F` [Example 17, 4-[trans-5-[[(1R,2R)-2-(2,4-Difluorophenyl)-2-hydroxy-1-methyl-3-(1H-1,2,4-triazol-1-yl)propyl]thio]-1,3-dioxan-2-yl]-N-(4-pyridyl)benzamide] yielded a melting point of 133 °C.

Regarding `C[C@@H](S[C@H]1CO[C@H](c2ccc(C(=O)Nc3nccs3)cc2)OC1)[C@](O)(Cn1cncn1)c1ccc(F)cc1F` [Example 27, 4-[trans-5-[[(1R,2R)-2-(2,4-Difluorophenyl)-2-hydroxy-1-methyl-3-(1H-1,2,4-triazol-1-yl)propyl]thio]-1,3-dioxan-2-yl]-N-(2-thiazolyl)benzamide], the melting point was found to be 108 °C.

`C[C@@H](S[C@H]1CO[C@H](c2ccc(C(=O)Nc3ccc(C(N)=O)cc3)cc2)OC1)[C@](O)(Cn1cncn1)c1ccc(F)cc1F` [Example 30, 4′-Carbamoyl-4-[trans-5-[[(1R,2R)-2-(2,4-difluorophenyl)-2-hydroxy-1-methyl-3-(1H-1,2,4-triazol-1-yl)propyl]thio]-1,3-dioxan-2-yl]benzanilide] gave a melting point of 230 °C.

The compound `C[C@@H](S[C@H]1CO[C@H](c2ccc(C(=O)Nc3ccc(C#N)c(Cl)c3)cc2)OC1)[C@](O)(Cn1cncn1)c1ccc(F)cc1F` gave a melting point of 115 °C.

With `C[C@@H](S[C@H]1CO[C@H](c2ccc(C(=O)Nc3ccc(C(F)(F)F)cc3)cc2)OC1)[C@](O)(Cn1cncn1)c1ccc(F)cc1F` [Example 11, 4-[trans-5-[[(1R,2R)-2-(2,4-Difluorophenyl)-2-hydroxy-1-methyl-3-(1H-1,2,4-triazol-1-yl)propyl]thio]-1,3-dioxan-2-yl]-4′-(trifluoromethyl)benzanilide], the melting point was 210 °C.

`C[C@@H](S[C@H]1CO[C@H](c2ccc(C(=O)Nc3ccc(C#N)c4ccccc34)cc2)OC1)[C@](O)(Cn1cncn1)c1ccc(F)cc1F` [Example 19, N-(4-Cyano-1-naphthyl)-4-[trans-5-[[(1R,2R)-2-(2,4-difluorophenyl)-2-hydroxy-1-methyl-3-(1H-1,2,4-triazol-1-yl)propyl]thio]-1,3-dioxan-2-yl]benzamide]: the melting point was 109 °C.

Turning to `CC(=O)c1ccc(NC(=O)c2ccc([C@H]3OC[C@H](S[C@H](C)[C@](O)(Cn4cncn4)c4ccc(F)cc4F)CO3)cc2)cc1` [Example 22, 4′-Acetyl-4-[trans-5-[[(1R,2R)-2-(2,4-difluorophenyl)-2-hydroxy-1-methyl-3-(1H-1,2,4-triazol-1-yl)propyl]thio]-1,3-dioxan-2-yl]benzanilide], the melting point was determined as 171 °C.

Take `C[C@@H](S[C@H]1CO[C@H](c2ccc(C(=O)Nc3ccc([N+](=O)[O-])cc3)cc2)OC1)[C@](O)(Cn1cncn1)c1ccc(F)cc1F` [Example 18]: the melting point was found to be 189 °C.

Turning to `C[C@@H](S[C@H]1CO[C@H](c2ccc(C(=O)Nc3ccc(SC(F)(F)F)cc3)cc2)OC1)[C@](O)(Cn1cncn1)c1ccc(F)cc1F` [Example 13, 4-[trans-5-[[(1R,2R)-2-(2,4-Difluorophenyl)-2-hydroxy-1-methyl-3-(1H-1,2,4-triazol-1-yl)propyl]thio]-1,3-dioxan-2-yl]-4′-(trifluoromethylthio)benzanilide], the melting point worked out at 95 °C.
